Reference: PubChem BioAssay AID2831 (Southern Research Specialized Biocontainment Screening …, 2010)
Calls of active or inactive are those of the source.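 The calls were made as follows: active = inhibition over 29.93%, a cutoff 3 SD above the screen mean, later confirmed by dose response; inconclusive = over the cutoff but never tested in dose response; inactive = the rest.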

Tested on: not listed separately
Test: PhoP promoter GFP reporter reduction in Typhimurium – purified and synthesized compounds, set 2, PhoP regulon inhibitor project, dose response (AID 2831)
Conditions: S. Typhimurium PhoP-regulated promoter-GFP reporter, fluorescence, 4 h; at 150 µM (top of the series)

| SMILES | inhibition |
| --- | --- |
| Fc1ccccc1NC(=S)NCc1ccc(Cl)cc1 | -10.3% (inactive) |
| Cc1ccc(NC(=S)NCc2ccc(Cl)cc2)cc1 | 26.1% (inactive) |
| O=C(Nc1ccc(Cl)cc1)N1CCCN(Cc2ccc(F)cc2)C1 | -86.3% (inactive) |
| Cc1ccc(CN2CCCN(C(=O)Nc3ccc(Cl)cc3)C2)cc1 | 17.3% (inactive) |
| O=C(Nc1ccccc1)N1CCCN(Cc2ccccc2F)C1 | -140% (inactive) |
| O=C(Nc1ccccc1Cl)N1CCCN(Cc2ccccc2F)C1 | -64.3% (inactive) |
| COc1ccccc1NC(=O)N1CCCN(Cc2ccccc2F)C1 | 13.8% (inactive) |
| COc1cccc(NC(=S)NCc2ccc(Cl)cc2)c1 | 2.44% (inactive) |
| O=C(Nc1ccc(Br)cc1)N1CCCN(Cc2ccccc2F)C1 | -62.1% (inactive) |
| O=C1C2=C(Nc3ccccc3SC2c2ccccc2C(F)(F)F)c2ccccc21 (stereo unspecified) | -23.8% (inactive) |
| Cc1cccc(NC(=S)NCc2ccc(Cl)cc2)c1 | 18.9% (inactive) |
| S=C(NCc1ccc(Cl)cc1)Nc1ccc(Br)cc1 | -3.88% (inactive) |
| COc1ccc(NC(=S)NCc2ccc(Cl)cc2)cc1 | 1.77% (inactive) |
| CCn1cc(C(=O)O)c(=O)c2cc(F)c(N3CCN(C(=S)NC)CC3)cc21 | -22.9% (inactive) |
| O=C(Nc1ccccc1)N1CCCN(Cc2ccc(F)cc2)C1 | -3.43% (inactive) |
| O=C(NCc1ccccc1)N1CCCN(Cc2ccccc2F)C1 | -78.3% (inactive) |
| O=C1C2=C(Nc3ccccc3SC2c2ccsc2)c2ccccc21 (stereo unspecified) | 7.75% (inactive) |
| O=C1C2=C(Nc3ccccc3SC2c2ccc(C(F)(F)F)cc2)c2ccccc21 (stereo unspecified) | -14.5% (inactive) |
| CCn1cc(C(=O)O)c(=O)c2cc(F)c(N3CCN(C(=S)NCc4ccccc4)CC3)cc21 | -0.39% (inactive) |
| CCn1cc(C(=O)O)c(=O)c2cc(F)c(N3CCN(C(=S)Nc4ccc(Cl)cc4)CC3)cc21 | -15% (inactive) |
| S=C(NCc1ccc(Cl)cc1)Nc1cccnc1 | -84.8% (inactive) |

Tested on: S. Typhimurium PhoP-regulated promoter-GFP reporter, fluorescence, 4 h
Test: as above
Conditions: not given

| IC50 | SMILES |
| --- | --- |
| < 0.15 µM | O=c1c2ccccc2[nH]c2ccc(F)cc12 |
| 106 µM | CCn1cc(C(=O)O)c(=O)c2cc(F)c(N3CCN(C(=S)NC(=O)c4ccccc4F)CC3)cc21 |
| < 0.15 µM | CN(C)CCCN(C(=O)CCc1ccccc1)c1nc2ccc(Cl)cc2s1 |
| 141 µM | O=C1C2=C(Nc3ccccc3SC2c2ccccc2Cl)c2ccccc21 (stereo unspecified) |
| < 0.15 µM | COc1ccccc1Nc1nc(NCc2ccco2)c2ccccc2n1 |
| 42.6 µM | CCn1cc(C(=O)O)c(=O)c2cc(F)c(N3CCN(C(=S)NC(=O)c4ccccc4Cl)CC3)cc21 |
| < 0.15 µM | C1=C(CCNc2ncnc3c2[nH]c2ccccc23)CCCC1 |
| 27.9 µM | CCn1cc(C(=O)O)c(=O)c2cc(F)c(N3CCN(C(=S)Nc4ccccc4C)CC3)cc21 |
| < 0.15 µM | O=C(O)c1cn(-c2ccc(F)cc2)c2cc(Cl)c(F)cc2c1=O |
| < 0.15 µM | O=S(=O)(Nc1c(S(=O)(=O)c2ccccc2)c2nc3ccccc3nc2n1C1CCCCC1)c1ccccc1 |
| 69.1 µM | O=[N+]([O-])c1ccc(CNC2CCCc3ccccc32)cc1 (stereo unspecified) |
| 58.8 µM | S=C(NCc1ccc(Cl)cc1)Nc1cccc(Cl)c1 |
| 76.6 µM | S=C(NCc1ccc(Cl)cc1)Nc1ccncc1 |
| 112 µM | Cc1ccc(Nc2cc(C)c3c(O)cccc3n2)cc1C |
| 46.5 µM | CCn1cc(C(=O)O)c(=O)c2cc(F)c(N3CCN(C(=S)Nc4ccccc4Cl)CC3)cc21 |
| 3.79 µM | CCn1cc(C(=O)O)c(=O)c2cc(F)c(N3CCN(C(=S)Nc4ccccc4C(F)(F)F)CC3)cc21 |
| 85.5 µM | COc1c(N2CCN(C(=S)NCc3ccccc3)C(C)C2)c(F)cc2c(=O)c(C(=O)O)cn(C3CC3)c12 (stereo unspecified) |
| < 0.15 µM | CCCCCNC(=O)c1cn(CC)c2cc(N3CCN(C)CC3)c(F)cc2c1=O |
| 2.03 µM | CCOc1ccc(NC(=S)N2CCN(c3cc4c(cc3F)c(=O)c(C(=O)O)cn4CC)CC2)cc1 |
| < 0.15 µM | O=C(Nc1cccnc1)c1cc(Br)c(Br)s1 |
| < 0.15 µM | CN1CCc2nc(SCC(=O)Nc3cccc(F)c3)c(C#N)c(-c3cccs3)c2C1 |
| 133 µM | O=C1C2=C(Nc3ccccc3SC2c2ccc(I)cc2)c2ccccc21 (stereo unspecified) |
| 76.8 µM | COc1cccc(C2Sc3ccccc3NC3=C2C(=O)c2ccccc23)c1 (stereo unspecified) |
| < 0.15 µM | COc1ccc(NC(=O)c2cc(Br)c(Br)s2)cn1 |
| < 0.15 µM | CCCCn1c(NS(=O)(=O)c2ccc(C)cc2)c(S(=O)(=O)c2ccccc2)c2nc3ccccc3nc21 |
| 146 µM | S=C(NCc1ccccc1Cl)Nc1ccncc1 |
| < 0.15 µM | O=C1c2ccccc2C2=Nc3ccccc3SC(c3ccccc3F)C12 (stereo unspecified) |
| 88.3 µM | O=C1C2=C(Nc3ccccc3SC2c2ccccc2Br)c2ccccc21 (stereo unspecified) |
| < 0.15 µM | N#C/C(=C\c1ccc[nH]1)C(=O)NC1CC1 |
| < 0.15 µM | CCCCn1c(NS(=O)(=O)c2ccccc2)c(S(=O)(=O)c2ccc(C)cc2)c2nc3ccccc3nc21 |
